{"source": "paper PMC7072677", "about": "“Arachidonoylcholine and Other Unsaturated Long-Chain Acylcholines Are Endogenous Modulators of the Acetylcholine Signaling System” (Biomolecules, 2020)", "key": {"[1]": {"biological_target": "T1, α7 nAChR (Homo sapiens, UniProt P36544)", "T1 construct": "SH-SY5Y cells endogenously expressing α7 nAChR; host or cells: SH-SY5Y", "T1 sequence (P36544 23-502)": "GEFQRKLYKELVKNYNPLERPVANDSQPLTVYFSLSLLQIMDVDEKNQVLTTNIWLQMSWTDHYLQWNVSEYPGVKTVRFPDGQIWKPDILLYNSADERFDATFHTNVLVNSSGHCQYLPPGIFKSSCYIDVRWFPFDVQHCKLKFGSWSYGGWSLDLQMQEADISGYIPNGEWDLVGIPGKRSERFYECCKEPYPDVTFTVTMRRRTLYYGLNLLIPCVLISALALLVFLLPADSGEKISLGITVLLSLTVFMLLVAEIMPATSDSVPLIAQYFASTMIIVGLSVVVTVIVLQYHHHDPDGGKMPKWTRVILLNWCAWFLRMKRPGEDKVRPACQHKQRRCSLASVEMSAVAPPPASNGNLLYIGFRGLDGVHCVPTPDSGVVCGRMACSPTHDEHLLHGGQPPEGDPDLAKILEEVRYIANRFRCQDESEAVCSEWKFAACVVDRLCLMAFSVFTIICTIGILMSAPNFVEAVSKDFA", "assay": "Ca2+ mobilization (agonist test) in SH-SY5Y cells", "type": "cell-based", "experimental": "Cells were cultured for two days at 37 °C on black 96-well plates. Immediately before the experiments, cells were incubated with […] Fluo-4AM ester reagent and 1.25 mM probenecid (organic anion transporter inhibitor) for 1 h at room temperature. After the incubation, the cells were washed out with the extracellular solution (140 mM NaCl, 2 mM CaCl2, 2.8 mM KCl, 4 mM MgCl2, 20 mM HEPES, 10 mM glucose; pH 7.4). The last washout was supplied with 10 uM α7 nAChR positive allosteric modulator PNU 120596 and tested compound. The excitation of Fluo-4 achieved at 485 nm and fluorescence registered at 535 nm using Hidex Sense Beta Plus (Turku, Finland) multi-well plate fluorimeter. The calcium rise amplitude was measured from the base level of each well."}, "[2]": {"biological_target": "T2, mouse muscle nAChR (Mus musculus, UniProt P02716+P04756+P20782)", "T2 construct": "expressed in transfected cells; host or cells: Xenopus laevis oocytes, cDNA in pRBG4", "T2 sequence (P04756 21-457)": "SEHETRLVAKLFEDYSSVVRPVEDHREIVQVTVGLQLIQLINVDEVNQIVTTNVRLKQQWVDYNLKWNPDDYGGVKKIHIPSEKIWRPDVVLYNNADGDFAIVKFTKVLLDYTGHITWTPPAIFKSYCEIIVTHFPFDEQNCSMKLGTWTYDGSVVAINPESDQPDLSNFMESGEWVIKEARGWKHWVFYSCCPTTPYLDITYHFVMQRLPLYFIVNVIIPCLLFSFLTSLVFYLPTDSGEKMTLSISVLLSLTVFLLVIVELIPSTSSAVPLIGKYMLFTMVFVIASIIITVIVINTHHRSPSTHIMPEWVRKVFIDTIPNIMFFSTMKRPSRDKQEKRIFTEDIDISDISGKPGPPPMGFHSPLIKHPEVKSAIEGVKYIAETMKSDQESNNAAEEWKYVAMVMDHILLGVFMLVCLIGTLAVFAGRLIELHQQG", "T2 sequence (P09690 24-501 partner)": "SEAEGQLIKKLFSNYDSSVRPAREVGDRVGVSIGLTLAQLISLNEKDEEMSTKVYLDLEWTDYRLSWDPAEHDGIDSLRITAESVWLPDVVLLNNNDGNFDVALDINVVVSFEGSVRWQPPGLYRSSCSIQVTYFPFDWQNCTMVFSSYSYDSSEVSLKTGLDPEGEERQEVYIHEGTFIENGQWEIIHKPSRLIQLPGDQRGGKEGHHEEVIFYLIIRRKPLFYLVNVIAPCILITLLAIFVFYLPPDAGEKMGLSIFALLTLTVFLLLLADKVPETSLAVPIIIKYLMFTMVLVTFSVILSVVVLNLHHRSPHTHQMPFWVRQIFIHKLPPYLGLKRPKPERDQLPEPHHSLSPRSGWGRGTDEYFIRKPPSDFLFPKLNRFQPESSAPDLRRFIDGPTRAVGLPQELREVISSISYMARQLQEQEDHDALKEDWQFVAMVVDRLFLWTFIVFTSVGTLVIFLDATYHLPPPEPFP", "T2 sequence (P02716 25-520)": "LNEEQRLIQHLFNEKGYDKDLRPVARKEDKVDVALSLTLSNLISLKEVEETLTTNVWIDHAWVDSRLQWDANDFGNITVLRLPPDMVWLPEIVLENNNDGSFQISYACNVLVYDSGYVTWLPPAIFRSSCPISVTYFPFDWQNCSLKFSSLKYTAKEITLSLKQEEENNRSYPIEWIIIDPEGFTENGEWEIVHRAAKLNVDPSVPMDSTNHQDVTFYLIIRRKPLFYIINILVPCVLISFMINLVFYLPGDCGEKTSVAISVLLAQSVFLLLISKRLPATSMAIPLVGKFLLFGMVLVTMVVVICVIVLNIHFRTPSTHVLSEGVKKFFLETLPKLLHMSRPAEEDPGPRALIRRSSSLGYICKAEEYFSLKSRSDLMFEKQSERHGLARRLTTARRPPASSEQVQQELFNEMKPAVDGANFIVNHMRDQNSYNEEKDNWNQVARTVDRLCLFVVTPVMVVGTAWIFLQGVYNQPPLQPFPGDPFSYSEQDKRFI", "T2 sequence (P20782 21-493)": "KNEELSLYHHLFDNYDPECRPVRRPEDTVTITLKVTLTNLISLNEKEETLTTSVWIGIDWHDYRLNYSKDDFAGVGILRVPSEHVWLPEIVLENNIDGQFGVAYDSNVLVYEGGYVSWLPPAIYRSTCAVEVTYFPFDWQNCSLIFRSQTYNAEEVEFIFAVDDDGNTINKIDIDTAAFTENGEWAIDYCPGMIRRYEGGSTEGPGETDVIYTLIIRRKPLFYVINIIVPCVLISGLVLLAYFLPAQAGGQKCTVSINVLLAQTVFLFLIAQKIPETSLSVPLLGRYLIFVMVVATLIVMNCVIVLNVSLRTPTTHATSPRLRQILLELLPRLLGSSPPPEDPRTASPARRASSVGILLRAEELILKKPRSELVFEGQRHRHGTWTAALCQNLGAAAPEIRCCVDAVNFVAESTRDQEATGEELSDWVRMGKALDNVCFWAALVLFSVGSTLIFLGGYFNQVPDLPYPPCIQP", "assay": "Two-electrode electrophysiology, ACh-evoked current in Xenopus oocytes", "type": "cell-based"}, "[3]": {"biological_target": "T3, α1β3γ2 GABAAR (Mus musculus, UniProt P62812+P63080)", "T3 construct": "expressed in transfected cells; host or cells: Xenopus oocytes, cDNA in PCI vector", "T3 sequence (P62812 28-455)": "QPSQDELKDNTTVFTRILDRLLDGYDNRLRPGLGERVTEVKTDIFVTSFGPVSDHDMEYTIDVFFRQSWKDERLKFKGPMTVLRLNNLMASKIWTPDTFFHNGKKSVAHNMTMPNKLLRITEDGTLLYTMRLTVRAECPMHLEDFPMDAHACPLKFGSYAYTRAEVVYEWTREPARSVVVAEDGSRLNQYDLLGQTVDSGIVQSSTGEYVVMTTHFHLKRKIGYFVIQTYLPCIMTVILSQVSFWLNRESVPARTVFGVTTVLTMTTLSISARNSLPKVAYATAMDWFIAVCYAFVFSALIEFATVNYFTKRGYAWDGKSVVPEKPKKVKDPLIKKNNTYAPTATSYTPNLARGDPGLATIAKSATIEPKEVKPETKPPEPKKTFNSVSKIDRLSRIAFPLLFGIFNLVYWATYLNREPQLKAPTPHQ", "T3 sequence (P63080 26-473)": "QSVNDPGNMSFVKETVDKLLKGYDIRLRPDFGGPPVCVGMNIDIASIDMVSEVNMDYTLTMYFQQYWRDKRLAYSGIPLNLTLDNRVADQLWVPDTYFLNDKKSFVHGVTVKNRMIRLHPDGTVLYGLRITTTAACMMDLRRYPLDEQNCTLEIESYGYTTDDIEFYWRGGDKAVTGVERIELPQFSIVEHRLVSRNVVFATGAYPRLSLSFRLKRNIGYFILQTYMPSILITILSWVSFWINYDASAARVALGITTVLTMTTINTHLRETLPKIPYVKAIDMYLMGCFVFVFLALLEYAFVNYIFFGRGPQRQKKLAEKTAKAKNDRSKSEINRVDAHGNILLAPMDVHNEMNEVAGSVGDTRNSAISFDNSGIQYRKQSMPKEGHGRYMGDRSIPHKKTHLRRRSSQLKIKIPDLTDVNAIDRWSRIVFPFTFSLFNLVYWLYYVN", "T3 sequence (P22723 39-474 partner)": "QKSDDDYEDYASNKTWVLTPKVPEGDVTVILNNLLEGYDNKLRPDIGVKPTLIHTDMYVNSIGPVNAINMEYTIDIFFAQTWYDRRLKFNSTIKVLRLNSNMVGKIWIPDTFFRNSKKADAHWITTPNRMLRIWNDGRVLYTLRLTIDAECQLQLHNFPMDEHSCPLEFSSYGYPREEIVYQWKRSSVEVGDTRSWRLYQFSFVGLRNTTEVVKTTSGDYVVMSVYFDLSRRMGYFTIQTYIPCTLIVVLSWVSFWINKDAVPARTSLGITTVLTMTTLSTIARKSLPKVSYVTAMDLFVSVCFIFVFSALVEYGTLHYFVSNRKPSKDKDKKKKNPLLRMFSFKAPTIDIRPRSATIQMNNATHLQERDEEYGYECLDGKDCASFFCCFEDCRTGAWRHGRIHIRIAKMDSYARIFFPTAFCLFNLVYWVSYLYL", "assay": "Electrophysiology, GABA-evoked currents in Xenopus oocytes", "type": "cell-based", "settings": "up to a concentration of 10 μM"}, "[4]": {"test_system": "mouse forelimb grip strength", "assay": "In vivo myorelaxant activity, forelimb grip strength", "settings": "mice"}, "[5]": {"biological_target": "T4, human erythrocyte AChE (Homo sapiens, UniProt P22303)", "T4 sequence (P22303 32-617 isoform P22303-2 limits assumed)": "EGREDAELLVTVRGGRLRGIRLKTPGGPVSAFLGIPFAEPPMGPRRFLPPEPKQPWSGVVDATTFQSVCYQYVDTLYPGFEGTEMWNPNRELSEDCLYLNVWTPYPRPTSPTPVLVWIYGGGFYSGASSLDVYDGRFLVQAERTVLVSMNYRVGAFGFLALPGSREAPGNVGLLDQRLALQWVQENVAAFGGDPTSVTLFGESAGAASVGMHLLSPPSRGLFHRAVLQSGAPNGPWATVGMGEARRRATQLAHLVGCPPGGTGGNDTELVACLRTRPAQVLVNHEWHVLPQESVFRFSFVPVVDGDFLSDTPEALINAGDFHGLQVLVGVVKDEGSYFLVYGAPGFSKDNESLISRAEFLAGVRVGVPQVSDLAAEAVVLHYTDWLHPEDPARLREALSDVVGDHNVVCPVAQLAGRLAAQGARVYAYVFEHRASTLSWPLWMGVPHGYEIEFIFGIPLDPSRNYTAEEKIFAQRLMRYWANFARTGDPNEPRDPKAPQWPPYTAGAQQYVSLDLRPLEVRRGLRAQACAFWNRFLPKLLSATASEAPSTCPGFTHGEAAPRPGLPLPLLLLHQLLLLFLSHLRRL", "assay": "Hydrolysis of the substance by AChE (HPLC)", "type": "in vitro ADME", "settings": "1 mM substance, 0.02 U/mL enzyme, pH 7.5, 25 °C, 40 min", "experimental": "(§1) AChE and BChE hydrolysis of AA-CHOL was determined in 100 mM phosphate buffer, pH 7.5 at 25 °C, the AA-CHOL concentration was 1 mM, the incubation time was 40 min. The enzyme concentrations were 0.02 U/mL in the sample. The reverse phase HPLC method was used to estimate the hydrolysis of AA-CHOL. As a control, acetylthiocholine iodide (ATCh) hydrolysis was determined in the same conditions."}, "[6]": {"biological_target": "T5, equine serum BChE (Equus caballus, UniProt P81908)", "T5 sequence (P81908 whole entry)": "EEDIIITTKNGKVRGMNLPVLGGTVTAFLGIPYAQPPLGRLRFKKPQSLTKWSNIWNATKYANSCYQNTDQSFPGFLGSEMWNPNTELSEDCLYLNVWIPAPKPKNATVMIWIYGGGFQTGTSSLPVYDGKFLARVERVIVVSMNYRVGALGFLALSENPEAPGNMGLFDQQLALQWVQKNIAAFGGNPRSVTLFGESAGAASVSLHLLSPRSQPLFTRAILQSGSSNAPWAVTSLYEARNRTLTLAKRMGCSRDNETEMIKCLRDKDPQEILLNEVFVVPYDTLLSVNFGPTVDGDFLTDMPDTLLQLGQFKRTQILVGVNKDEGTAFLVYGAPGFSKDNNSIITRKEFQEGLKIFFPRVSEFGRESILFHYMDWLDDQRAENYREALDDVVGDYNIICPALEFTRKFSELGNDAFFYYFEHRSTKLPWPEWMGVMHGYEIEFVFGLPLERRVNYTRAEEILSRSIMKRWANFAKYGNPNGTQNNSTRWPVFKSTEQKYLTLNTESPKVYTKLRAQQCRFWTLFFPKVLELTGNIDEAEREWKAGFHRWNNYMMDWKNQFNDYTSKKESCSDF", "assay": "Hydrolysis of the substance by BChE (HPLC)", "type": "in vitro ADME, horse", "settings": "1 mM substance, 0.02 U/mL enzyme, pH 7.5, 25 °C", "experimental": "as §1"}, "[7]": {"biological_target": "T4, human erythrocyte AChE", "assay": "biochemical", "settings": "for IC50: 10 min preincubation, ATCh 1 mM, N = 11, read-out: AChE IC50, inhibition of ATCh hydrolysis"}, "[8]": {"biological_target": "T5, equine serum BChE", "assay": "biochemical", "settings": "for IC50: 10 min preincubation, ATCh 1 mM, N = 11, read-out: BChE IC50, inhibition of ATCh hydrolysis"}, "[9]": {"test_system": "A549 lung cancer cells", "settings": "for decrease of A549 viability: 100 μM, 24 h incubation, MTT; for decrease of cell viability, dose-dependent, maximum: A549 lung cancer cells"}, "[10]": {"test_system": "sea urchin Strongylocentrotus droebachiensis and S. purpuratus embryo", "set-up": "method as in PMID 11443948", "settings": "quenched by QX-222; cited from earlier work"}, "[11]": {"test_system": "A549 cells", "assay": "Caspase activation and apoptosis staining in A549 cells", "type": "cell-based", "settings": "A549, 150 μM"}, "[12]": {"test_system": "A549 lung cancer cells", "settings": "1 to 10 µM, predominantly after 48 and 72 h; cited from earlier work"}}, "note": "Entries after “also recorded” stand apart in the source; their conditions may differ. Read-outs that look alike come from different tables or passages of the source."}
{"smiles": "CCCCC/C=C\\C/C=C\\C/C=C\\C/C=C\\CCCC(=O)OCC[N+](C)(C)C", "note": "[AA-CHOL, Arachidonoylcholine]", "values": [{"measurement": "induction of rise in intracellular Ca2+ (agonistic properties)", "setting": "[1]", "value": "showed no agonistic properties"}, {"measurement": "IC50", "setting": "[2]", "value": "3.16 ± 0.26", "unit": "µM"}, {"measurement": "functional inhibition of α1β3γ2 GABAAR", "setting": "[3]", "value": "no functional inhibition"}, {"measurement": "muscle relaxant effect, grip strength vs control", "setting": "[4]; injection into front paws (intramuscular) 0.5, 1 and 4 mg/kg, 15 min to 4 h", "value": "no differences from the control group; also recorded: no difference from the control; also recorded: does not produce a significant muscle relaxation"}, {"measurement": "muscle relaxant effect, grip strength vs control", "setting": "[4]; subcutaneous injection 10 and 30 mg/kg, up to 240 min", "value": "No differences with the respective controls; also recorded: no substance activity"}, {"measurement": "hydrolysis by AChE", "setting": "[5]", "value": "not hydrolyzed"}, {"measurement": "hydrolysis by BChE", "setting": "[6]; during 40 min", "value": "up to 30%"}, {"measurement": "IC50", "setting": "[7]", "value": "90 ± 1", "unit": "µM"}, {"measurement": "type of AChE inhibition", "setting": "[7]; steady-state kinetics", "value": "mixed type mechanism; also recorded: mixed-type inhibition"}, {"measurement": "αKi (noncompetitive component), AChE", "setting": "[7]; steady-state, Lineweaver-Burk", "value": "51.4 ± 4.1", "unit": "µM"}, {"measurement": "Ki", "setting": "[7]; steady-state, Lineweaver-Burk, read-out: Ki (competitive component), AChE", "value": "16.7 ± 1.5", "unit": "µM"}, {"measurement": "IC50", "setting": "[8]", "value": "170 ± 16", "unit": "µM"}, {"measurement": "type of BChE inhibition", "setting": "[8]; steady-state kinetics", "value": "mixed type mechanism; also recorded: mixed-type inhibition"}, {"measurement": "αKi (noncompetitive component), BChE", "setting": "[8]; steady-state, Lineweaver-Burk", "value": "214 ± 17", "unit": "µM"}, {"measurement": "Ki", "setting": "[8]; steady-state, Lineweaver-Burk, read-out: Ki (competitive component), BChE", "value": "70.5 ± 6.3", "unit": "µM"}, {"measurement": "decrease of A549 viability", "setting": "[9]", "value": 10, "unit": "%"}, {"measurement": "decrease of cell viability, dose-dependent, maximum", "setting": "[9]", "value": "up to 45%"}, {"measurement": "effect on sea urchin larva", "setting": "[10]", "value": "dose-dependently induced the larva immobilization and cell lysis"}]}
{"smiles": "CC(=O)SCC[N+](C)(C)C.[I-]", "note": "[ATCh, acetylthiocholine iodide, reference compound]", "values": [{"measurement": "hydrolysis by AChE", "setting": "[5]", "value": "fully hydrolyzed"}, {"measurement": "hydrolysis by BChE", "setting": "[6]; 40 min", "value": "fully hydrolyzed"}]}
{"smiles": "CC/C=C\\C/C=C\\C/C=C\\C/C=C\\C/C=C\\C/C=C\\CCC(=O)OCC[N+](C)(C)C", "note": "[DHA-CHOL, docosahexaenoylcholine]", "values": [{"measurement": "induction of rise in intracellular Ca2+ (agonistic properties)", "setting": "[1]", "value": "showed no agonistic properties"}, {"measurement": "AChE inhibitory activity", "setting": "[7]", "value": "Neither Ln-CHOL nor DHA-CHOL had noticeable inhibitory activity"}, {"measurement": "IC50", "setting": "[7]", "value": "> 300", "unit": "µM"}, {"measurement": "IC50", "setting": "[8]", "value": "> 300", "unit": "µM"}, {"measurement": "decrease of A549 viability", "setting": "[9]", "value": "inactive"}, {"measurement": "effect on sea urchin larva", "setting": "[10]", "value": "dose-dependently induced the larva immobilization and cell lysis"}]}
{"smiles": "CCCCC/C=C\\C/C=C\\CCCCCCCC(=O)OCC[N+](C)(C)C", "note": "[Ln-CHOL]", "values": [{"measurement": "induction of rise in intracellular Ca2+ (agonistic properties)", "setting": "[1]", "value": "showed no agonistic properties"}, {"measurement": "AChE inhibitory activity", "setting": "[7]", "value": "Neither Ln-CHOL nor DHA-CHOL had noticeable inhibitory activity"}, {"measurement": "IC50", "setting": "[7]", "value": "> 300", "unit": "µM"}, {"measurement": "IC50", "setting": "[8]", "value": "> 300", "unit": "µM"}, {"measurement": "decrease of A549 viability", "setting": "[9]", "value": 10, "unit": "%"}, {"measurement": "decrease of cell viability, dose-dependent, maximum", "setting": "[9]", "value": "up to 45%"}]}
{"smiles": "CN1CCC[C@H]1c1cccnc1", "note": "[Nicotine, reference compound]", "values": [{"measurement": "effect on A549 proliferation", "setting": "[9]; 15 μM", "value": "slightly decreased"}, {"measurement": "effect on the cytotoxicity of Ol-CHOL", "setting": "[9]; A549, 90 or 100 μM of Ol-CHOL", "value": "did not affect the cytotoxicity"}]}
{"smiles": "CCCCCCCC/C=C\\CCCCCCCC(=O)OCC[N+](C)(C)C", "note": "[Ol-CHOL]", "values": [{"measurement": "phosphatidylserine exposure on the membrane", "setting": "[11]", "value": "phosphatidylserine exposure on the membrane"}, {"measurement": "caspase 3 activation", "setting": "[11]; 5 h", "value": "activation"}, {"measurement": "caspase 8 activation", "setting": "[11]; 5 h", "value": "not caspase 8 activation"}, {"measurement": "caspase 9 activation", "setting": "[11]; 5 h", "value": "activation"}, {"measurement": "decrease of A549 viability", "setting": "[9]", "value": 45, "unit": "%"}, {"measurement": "decrease of cell viability, dose-dependent, maximum", "setting": "[9]", "value": "up to 45%"}]}
{"smiles": "CCN1C[C@]2(COC(=O)c3ccccc3N3C(=O)C[C@H](C)C3=O)CC[C@H](OC)[C@@]34[C@@H]5C[C@H]6[C@H](OC)[C@@H]5[C@](O)(C[C@@H]6OC)[C@@](O)([C@@H](OC)[C@H]23)[C@@H]14", "note": "[methyllycaconitine, reference compound]", "values": [{"measurement": "effect on A549 proliferation", "setting": "[9]; up to the concentration of 10 μM", "value": "did not affect"}, {"measurement": "effect on proliferation of the A549 cells", "setting": "[12]", "value": "inhibits the proliferation"}]}
